According to patent US7803559B1, “Protein aggregation regulators” (The Regents of the University of CA, priority 2003, dated 2010):
Like-named read-outs stand apart in the source and are kept apart here.

What was measured:
htt(72)CFP/YFP = molecular target: T1, htt(72)CFP/YFP (Homo sapiens, UniProt P42858, INS38QQQQQQQQQQQQQQQQQQQQQQQQQQQQQQQQQQQQQQQQQQQQQQQQQQQ); test: FRET based assay of htt aggregation; assay type: cell-based; conditions: for Max % Inh. in Htt: HEK293, htt(72)CFP/YFP, 24 hours
T1 construct: htt exon 1 fragment derived from plasmid qp72; expressed in transfected cells; host or cells: HEK293
Protocol: Aggregation of htt was monitored using the FPR FRET based HTS described herein for assaying aggregation of AR, using plasmids with htt exon 1-CFP and -YFP fusions containing 72 repeats (htt(72)CFP/YFP). HEK293 cells were transfected with htt(72)CFP/YFP as above, and cells were plated into a 96-well dish in the presence or absence of various concentrations of test compounds. After 24 hours, cells were fixed in 4% paraformaldehyde, and FRET signal was determined from the cell monolayers by reading on the FPR.

ARN127(65)CFP/YFP [1] = test: Secondary screen using the AR FRET assay; assay type: cell-based, human; conditions: secondary screen, AR FRET assay, Table 3
Protocol: Selected candidate compounds and/or libraries of compounds were screened as follows. Daughter plates were created in duplicate from the 384-well microtiter plates that contained the compounds at a concentration of 80 μg/ml. […] To screen a library, HEK293 cells stably expressing RFP were plated in 10 cm plates to obtain ˜80% confluency on the day of transfection. Each plate was transfected with 2 μg of ARN127(65)CFP/YFP each, and 0.7 μg p6RGRΔ using 50 μL Plus Reagent™ and 76 μL Lipofectamine™ according to manufacturer's protocol (Invitrogen). After 3 hours, complete medium was added and the plates were incubated further for 3 hours. […] The cells were then cultured for ˜48 hours to allow aggregate formation. After fixing the cells FRET signal was measured using a SAFIRE Fluorescence Plate Reader (Tecan, Inc.) according to methods described above. Several internal controls were used to standardize each experiment. Mock transfected cells were used to control for background autofluorescence and light scattering by mammalian cells. To control for CFP bleedthrough and crossover excitation of YFP, additional wells contained cells expressing ARN127(25)CFP or ARN127(25)YFP alone. RFP was measured to control for non-specific effects on steady-state protein levels. ARN127(25)CFP/YFP expression served as a reference point for background FRET levels without aggregation (a theoretical maximum effect on aggregation inhibition). FRET measurements for each experiment were thus scaled between 100% (cells with no drug treatment) and 0% (FRET levels from unexpanded protein).
Selected candidate compounds from the primary screen of all three libraries were assayed again in a secondary screen using the AR FRET assay.
Finally, the role of F-actin in preventing polyglutamine aggregation was investigated by treating cells with two agents that prevent actin depolymerization: phalloidin and jasplakinolide.

ARN127(65)CFP/YFP [2] = test: FRET-based assay of polyglutamine (AR) aggregation, limited chemical screen and dose-response; assay type: cell-based, human
Protocol: For experiments in the fluorescence plate reader, high-throughput screening, and detergent fractionation, HEK293 cells in 6-well plates were transfected with a total of 2 μg of DNA using 10 μL Plus™ and 12 μL Lipofectamine™ according to manufacturer's protocol. To control for autofluorescence and light scattering by mammalian cells, a control group was transfected with 2 μg pcDNA3. To control for bleedthrough and crossover excitation, CFP and YFP controls were transfected with 1 μg pECFP-C1 (Clontech) and 1 μg pcDNA3 (Invitrogen) or 1 μg pEYFP-C1 (Clontech) and 1 μg pcDNA3 respectively. After 5 hours, cells were counted and plated into optically clear 96-well plates (Costar™ 3603) at a density of 60,000 cells/well. […] For assays of rho-GTPase mutants, 1 μg of each was used in conjunction with 1 μg of the polyglutamine expression plasmids. Transfections were performed in triplicate, and each experiment was repeated 6 times. C17-2 neural precursor cells were plated in 12-well plates and transfected using 4 μg of DNA and 4 μl of Lipofectamine 2000™. […] In C17-2 cells polyglutamine protein was visualized by direct fluorescence; neuron-specific tubulin was visualized by immunostaining with mouse monoclonal antibody Neuro TUJ1 (Covance) at 1:1000. […]

AR(122)-C17.2 cells = test: Cell model of full length AR cytopathology (surviving neurons after 6 days of differentiation); assay type: cell-based, mouse; conditions: 50 μM
Source text: (§1) Immortalized cell lines were created expressing full-length AR that differentiated in vitro into cells that resemble CNS neurons. C17.2 cells were used, developed by Evan Snyder, M. D., Ph.D. which are a transformed mouse neural precursor cell line that retain the ability to engraft and differentiate into CNS neurons and glia when implanted into fetal mouse brain (Snyder et al. 1192 Cell 68:33-51). In their undifferentiated form these cells may be propagated and easily transfected in vitro. However, upon serum starvation, addition of growth factor (NGF 100 ng/ml), and mitomycin (100 ng/ml) they differentiate into cells that have many features of CNS neurons, including axons, dendrites, and expression of neuron-specific markers.
(§2) C17.2 cell lines were created that stably expressed full-length HA-tagged forms of AR (25, 66, 103, or 122 glutamines). These AR(n)-C17.2 cell lines recapitulate several important aspects of SBMA, including proteolytic cleavage, and nuclear inclusion formation (data not shown). […] After six days of differentiation, AR(25)-C17.2 cells cultured with or without DHT readily formed neuron-like cells, expressing neural markers and extending long axonal processes. […]

[3] = system: Transgenic flies harboring htt exon 1 (Q93); test: Drosophila model of htt exon 1 neurodegeneration (rhabdomeres per ommatidium); assay type: in vivo; conditions: 25 μM in food, seven days post-eclosion, p<0.0003 by ANOVA
Protocol: Transgenic flies were used, harboring a human huntingtin exon 1 fragment with 93 glutamines (htt exon 1 (Q93)) that is expressed in all fly neurons under the control of the elav:Gal4 driver.
Flies were treated by maintaining adults on food containing candidate compound (e.g., 25 μM Y-27632) or no drug supplement. The number of rhabdomeres in treated vs. untreated flies were analyzed seven days post-eclosion by the pseudopupil technique as described (Steffan et al., (2001). Nature 413, 739-743). Approximately 50-60 ommatidia were analyzed for rhabdomere content on each of 10-12 flies from each treatment group, and the average number of rhabdomeres per ommatidium in each individual was determined. Percent rhabdomere loss was calculated as 100×((7−average number remaining)/7) before and after treatment.
The therapeutic effect of Y-27632 in a Drosophila model of polyglutamine neurodegenerative disease was tested. Following eclosion, adult flies expressing the transgene were grown for seven days in the presence or absence of 25 μM Y-27632 in their food and rhabdomeres were counted at seven days. […] Thus, in addition to reducing polyglutamine aggregation in mammalian cells, Y-27632 is neuroprotective in this Drosophila model of polyglutamine protein toxicity.

full-length AR = test: Western blot of full-length AR levels in stable C17.2 neural cell lines; assay type: cell-based; conditions: 50 μM, with or without 100 nM DHT, FIG. 6A
Source text: as §1, §2

[4] = Pharmacokinetics in serum and brain of mice (LC-MS); assay type: in vivo, mouse; conditions: for half-life: mouse
Protocol: The pharmacokinetics of candidate compounds were assayed in serum and brain of mice. Wild-type C57B6 mice are injected with a single IP dose of a candidate compound, e.g., Y-27632 at 10 mg/kg. Pairs of animals are sacrificed at various time points and serum and brain samples were obtained for LC-MS analysis of drug levels. Plots of serum concentration vs. time and brain concentration vs. time are used to analyze, e.g., penetration of the blood/brain barrier, drug kinetics, and t1/2.
Wild-type C57B6 mice were treated with a single 10 mg/kg dose of Y-27632 by IP injection. Pairs of animals were sacrificed at various time points and serum and brain samples were obtained for LC-MS analysis of Y-27632 levels. […] The initial rapid fall in serum concentration is likely due to tissue re-distribution. […] Values represent the average from two mice; error bars represent the range.

[5] = C57B6 mice, single 10 mg/kg dose IP

T1 sequence (P42858 with tags, fused parts or gaps, stated change not applied): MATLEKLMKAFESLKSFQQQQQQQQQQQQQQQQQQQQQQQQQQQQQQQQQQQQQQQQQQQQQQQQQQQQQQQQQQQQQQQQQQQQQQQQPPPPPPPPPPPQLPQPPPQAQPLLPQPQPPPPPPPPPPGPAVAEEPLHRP

Oc1cc(O)cc(/C=C/c2ccc(O)c(O)c2)c1 [Piceatannol, 3,3′4,5′-Tetrahydroxy-Trans-stilbene]
Max % Inh. in Htt (htt(72)CFP/YFP): 28% | Max % Inhibition (ARN127(65)CFP/YFP [1]): 23%

COc1cc2nc[nH]c(=O)c2cc1OC(C)=O [Compound 4, Acetic acid 7-methoxy-4-oxo-3,4-dihydro-quinazolin-6-yl ester]
Max % Inh. in Htt (htt(72)CFP/YFP): 15% | Max % Inhibition (ARN127(65)CFP/YFP [1]): 28%

C[C@@H](N)C1CCC(C(=O)Nc2ccncc2)CC1 (stereo partly shown) [Compound Y-27632]
aggregation of htt exon 1-CFP and -YFP fusions containing 72 repeats (htt(72)CFP/YFP; FIG. 3A): inhibited aggregation | decrease of FRET (polyglutamine protein aggregation) (ARN127(65)CFP/YFP [2]; HEK293, ARN127(65)CFP/YFP and GRΔ, 100 nM dex, 48 hours): 40% | EC50 (ARN127(65)CFP/YFP [2]; dose-response analysis, FRET, FIG. 3B, read-out: EC50 for the effect on polyglutamine aggregation): ~5 µM | increase in number of surviving AR(122)-C17.2 neurons (AR(122)-C17.2 cells): 100% | effect on AR(25)-C17.2 cells (AR(122)-C17.2 cells; data not shown): without affecting AR(25)-C17.2 cells | rhabdomere loss prevented [3]: 29% | AR steady-state levels (full-length AR): reduced the AR steady-state levels | serum:brain ratio ([4]; C57B6, mouse, in vivo, ip, 10 mg/kg): approximately 6:1 | bioavailability [4, 5]: excellent bioavailability | brain concentration, peak [4, 5]: ≈ 500 nM | serum concentration, spike [4, 5]: approximately 3.5 μM | half-life ([4]; serum and brain, C57B6 mice, single 10 mg/kg dose IP, read-out: t1/2 of clearance from serum and brain (first-order kinetics)): ~1 h | half-life ([4]; serum, C57B6 mice, single 10 mg/kg dose IP, read-out: t1/2 of clearance from serum): ~1 h

COc1cc2ncnc(Nc3ccc(F)c(Cl)c3)c2cc1OC(C)=O [Compound 3, Acetic acid 4-(3-chloro-4-fluoro-phenylamino)-7-methoxy-quinazolin-6-yl ester]
Max % Inh. in Htt (htt(72)CFP/YFP): 21% | Max % Inhibition (ARN127(65)CFP/YFP [1]): 30%
